Assays:
HBV = assay: Test of anti HBV activity in vitro (viral DNA by qPCR); format: cell-based; conditions: Hepatitis B virus; HepG2.2.15 cells, viral DNA in cell culture supernatant by qPCR; read-out: EC50 values of the compound of the invention on viral replication
Outline: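 HepG2.2.15 cells (integrated HBV genome) were grown to confluence, then treated with compound in 4-fold dilutions from 4 μM final (0.5% DMSO). Secreted viral DNA in supernatant was quantified by SYBR qPCR against an HBV plasmid standard curve; EC50 from four-parameter nonlinear regression of concentration versus copy number.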

[1] = Cytotoxicity test with CellTiter Glo; format: cell-based; conditions: human, HepG2.2.15 cells, highest concentration 150 μM, read-out: CC50 values of the compounds of the invention
Procedure: Test 2: Cytotoxicity and Selectivity Index
Methods of Testing Cytotoxicity and Selectivity Index
The serial diluted compound was added to a 384 wells plate at 50 μL HepG2.2.15 cell per well (3000 cells per well), the highest final concentration in the experiment is 150 μM (200 fold dilution). The plate was cultured at 37° C. in an incubator with CO2 for 4 days, and cytotoxicity of the compound was detected using CellTiter Glo agent.
The cytotoxicity of the compound was calculated using the following formulate, cytotoxicity (%)=100−(detection value/mean of DMSO control wells values×100) CC50 values were calculated by a four parametric nonlinear regression model using Graphpad Prism 5 software to manage concentration−cytotoxicity (%).

| Compound | EC50 (HBV) [nM] | CC50 at 4 days [1] [nM] |
| --- | --- | --- |
| COC(=O)C1=C(CN2CCN3C(=O)N(c4ccc(Oc5ccc(C(=O)N6CC(O)C6)cc5)cc4)C[C@@H]3C2)NC(c2nccs2)=N[C@H]1c1ccc(F)cc1Cl [Example 61, (R)-methyl 4-(2-chloro-4-fluorophenyl)-6-(((S)-2-(4-(4-(3-hydroxyazetidine-1-carbonyl)phenoxy)phenyl)-3-oxohexahydroimidazo[1,5-a]pyrazin-7(1H)-yl)methyl)-2-(thiazol-2-yl)-1,4-dihydropyrimidine-5-carboxylate] | 15 | > 150000 |
| COC(=O)C1=C(CN2CCN3C(=O)N(c4ccc(Oc5ccc(C(=O)N(CCO)Cc6ccccc6)cc5)cc4)C[C@@H]3C2)NC(c2nccs2)=N[C@H]1c1ccc(F)cc1Cl [Example 63, (R)-methyl 6-(((S)-2-(4-(4-(benzyl(2-hydroxyethyl)carbamoyl)phenoxy)phenyl)-3-oxohexahydroimidazo[1,5-a]pyrazin-7(1H)-yl)methyl)-4-(2-chloro-4-fluorophenyl)-2-(thiazol-2-yl)-1,4-dihydropyrimidine-5-carboxylate] | 27.6 | > 150000 |
| COC(=O)C1=C(CN2CCN3C(=O)N(c4ccc(Oc5ccc(C(=O)N(CCO)CCO)cc5)cc4)C[C@@H]3C2)NC(c2nccs2)=N[C@H]1c1ccc(F)cc1Cl [Example 64, (R)-methyl 6-(((S)-2-(4-(4-(bis(2-hydroxyethyl)carbamoyl)phenoxy)phenyl)-3-oxohexahydroimidazo[1,5-a]pyrazin-7(1H)-yl)methyl)-4-(2-chloro-4-fluorophenyl)-2-(thiazol-2-yl)-1,4-dihydropyrimidine-5-carboxylate] | 24.9 | > 150000 |
| COC(=O)C1=C(CN2CCN3C(=O)N(c4ccc(Oc5ccc(C(=O)NC(C)(C)CO)cc5)cc4)C[C@@H]3C2)NC(c2nccs2)=N[C@H]1c1ccc(F)cc1Cl [Example 68, (R)-methyl 4-(2-chloro-4-fluorophenyl)-6-(((S)-2-(4-(4-((1-hydroxy-2-methylprop-2-yl)carbamoyl)phenoxy)phenyl)-3-oxohexahydroimidazo[1,5-a]pyrazin-7(1H)-yl)methyl)-2-(thiazol-2-yl)-1,4-dihydropyrimidine-5-carboxylate] | 11.1 | > 150000 |
| COCC(C)(C)NC(=O)c1ccc(Oc2ccc(N3C[C@@H]4CN(CC5=C(C(=O)OC)[C@H](c6ccc(F)cc6Cl)N=C(c6nccs6)N5)CCN4C3=O)cc2)cc1 [Example 70, (R)-methyl 4-(2-chloro-4-fluorophenyl)-6-(((S)-2-(4-(4-((1-methoxy-2-methylprop-2-yl)carbamoyl)phenoxy)phenyl)-3-oxohexahydroimidazo[1,5-a]pyrazin-7(1H)-yl)methyl)-2-(thiazol-2-yl)-1,4-dihydropyrimidine-5-carboxylate] | 15.9 | > 150000 |
| COC(=O)C1=C(CN2CCN3C(=O)N(c4ccc(Oc5ccc(C(=O)NCCCC(=O)N(C)C)cc5)cc4)C[C@@H]3C2)NC(c2nccs2)=N[C@H]1c1ccc(F)cc1Cl [Example 71, (R)-methyl 4-(2-chloro-4-fluorophenyl)-6-(((S)-2-(4-(4-((4-(dimethylamino)-4-oxobutyl)carbamoyl)phenoxy)phenyl)-3-oxohexahydroimidazo[1,5-a]pyrazin-7(1H)-yl)methyl)-2-(thiazol-2-yl)-1,4-dihydropyrimidine-5-carboxylate] | 16.6 | > 150000 |
| COC(=O)C1=C(CN2CCN3C(=O)N(c4ccc(Oc5ccc(C(=O)NC(C)CO)cc5)cc4)C[C@@H]3C2)NC(c2nccs2)=N[C@H]1c1ccc(F)cc1Cl (stereo partly drawn) [Example 72, (4R)-methyl 4-(2-chloro-4-fluorophenyl)-6-(((8aS)-2-(4-(4-((1-hydroxyprop-2-yl)carbamoyl)phenoxy)phenyl)-3-oxohexahydroimidazo[1,5-a]pyrazin-7(1H)-yl)methyl)-2-(thiazol-2-yl)-1,4-dihydropyrimidine-5-carboxylate] | 21.2 | > 150000 |
| COC(=O)C1=C(CN2CCN3C(=O)N(c4ccc(Oc5ccc(C(=O)N6CCO[C@H](CCC(=O)O)C6)cc5)cc4)C[C@@H]3C2)NC(c2nccs2)=N[C@H]1c1ccc(F)cc1Cl [Example 74, 3-((R)-4-(4-(4-(((S)-7-((R)-6-(2-chloro-4-fluorophenyl)-5-(methoxycarbonyl)-2-(thiazol-2-yl)-3,6-dihydropyrimidin-4-yl)methyl)-3-oxohexahydroimidazo[1,5-a]pyrazin-2(3H)-yl)phenoxy)benzoyl)morpholin-2-yl)propanoic acid] | 30.7 | > 150000 |
| COC(=O)C1=C(CN2CCN3C(=O)N(c4ccc(N5CCOC(C(=O)O)C5)cc4)C[C@@H]3C2)NC(c2nccs2)=N[C@H]1c1ccc(F)cc1Cl (stereo partly drawn) [Example 77, 4-(4-((S)-7-(((R)-6-(2-chloro-4-fluorophenyl)-5-(methoxycarbonyl)-2-(thiazol-2-yl)-3,6-dihydropyrimidin-4-yl)methyl)-3-oxohexahydroimidazo[1,5-a]pyrazin-2(3H)-yl)phenyl)morpholine-2-carboxylic acid] | 9.7 | > 150000 |
| COC(=O)C1=C(CN2CCN3C(=O)N(c4ccc(Oc5cc(F)cc(C(=O)O)c5)cn4)C[C@@H]3C2)NC(c2nccs2)=N[C@H]1c1ccc(F)cc1Cl [Example 79, 3-((6-((S)-7-(((R)-6-(2-chloro-4-fluorophenyl)-5-(methoxycarbonyl)-2-(thiazol-2-yl)-3,6-dihydropyrimidin-4-yl)methyl)-3-oxohexahydroimidazo[1,5-a]pyrazin-2(3H)-yl)pyridin-3-yl)oxy)-5-fluorobenzoic acid] | 29 | > 150000 |
| COC(=O)C1=C(CN2CCN3C(=O)N(c4ccc(=O)n(-c5ccc(C(=O)O)cc5F)c4)C[C@@H]3C2)NC(c2nccs2)=N[C@H]1c1ccc(F)cc1Cl [Example 80, 4-(5-((S)-7-(((R)-6-(2-chloro-4-fluorophenyl)-5-(methoxycarbonyl)-2-(thiazol-2-yl)-3,6-dihydropyrimidin-4-yl)methyl)-3-oxohexahydroimidazo[1,5-a]pyrazin-2(3H)-yl)-2-oxopyridin-1(2H)-yl)-3-fluorobenzoic acid] | 15.8 | > 150000 |
| COC(=O)C1=C(CN2CCN3C(=O)N(c4cc(F)cc(Oc5ccc(C(=O)O)cc5F)c4)C[C@@H]3C2)NC(c2nccs2)=N[C@H]1c1cccc(F)c1Cl [Example 90, 4-(3-((S)-7-(((R)-6-(2-chloro-3-fluorophenyl)-5-(methoxycarbonyl)-2-(thiazol-2-yl)-3,6-dihydropyrimidin-4-yl)methyl)-3-oxohexahydroimidazo[1,5-a]pyrazin-2(3H)-yl)-5-fluorophenoxy)-3-fluorobenzoic acid] | 12.5 | > 150000 |
| COC(=O)C1=C(CN2CCN3C(=O)N(c4ccc(Sc5ccc(C(=O)O)cc5)cc4)C[C@@H]3C2)NC(c2nccs2)=N[C@H]1c1ccc(F)cc1Cl [Example 91, 4-((4-((S)-7-(((R)-6-(2-chloro-4-fluorophenyl)-5-(methoxycarbonyl)-2-(thiazol-2-yl)-3,6-dihydropyrimidin-4-yl)methyl)-3-oxohexahydroimidazo[1,5-a]pyrazin-2(3H)-yl)phenyl)thio)benzoic acid] | 37.7 | > 150000 |
| COC(=O)C1=C(CN2CCN3C(=O)N(c4cc(F)cc(Oc5ccc(C(=O)O)cc5F)c4)C[C@@H]3C2)NC(c2nccs2)=N[C@H]1c1ccccc1Cl [Example 93, 4-(3-((S)-7-(((R)-6-(2-chlorophenyl)-5-(methoxycarbonyl)-2-(thiazol-2-yl)-3,6-dihydropyrimidin-4-yl)methyl)-3-oxohexahydroimidazo[1,5-a]pyrazin-2(3H)-yl)-5-fluorophenoxy)-3-fluorobenzoic acid] | 21.5 | > 150000 |
| COC(=O)C1=C(CN2CCN3C(=O)N(c4ccc(Oc5ccc(C#N)cc5)cc4)C[C@@H]3C2)NC(c2nccs2)=N[C@H]1c1ccc(F)cc1Cl [Example 97, (R)-methyl 4-(2-chloro-4-fluorophenyl)-6-(((S)-2-(4-(4-cyanophenoxy)phenyl)-3-oxohexahydroimidazo[1,5-a]pyrazin-7(1H)-yl)methyl)-2-(thiazol-2-yl)-1,4-dihydropyrimidine-5-carboxylate] | 36.8 | > 150000 |
| COC(=O)C1=C(CN2CCN3C(=O)N(c4ccc(Sc5ccc(C#N)cc5)cc4)C[C@@H]3C2)NC(c2nccs2)=N[C@H]1c1ccc(F)cc1Cl [Example 98, (R)-methyl 4-(2-chloro-4-fluorophenyl)-6-(((S)-2-(4-((4-cyanophenyl)thio)phenyl)-3-oxohexahydroimidazo[1,5-a]pyrazin-7(1H)-yl)methyl)-2-me (thiazol-2-yl)-1,4-dihydropyrimidine-5-carboxylate] | 11.9 | > 150000 |
| COC(=O)C1=C(CN2CCN3C(=O)N(c4ccc(Oc5ccc(CO)cc5)cc4)C[C@@H]3C2)NC(c2nccs2)=N[C@H]1c1ccc(F)cc1Cl [Example 99, (R)-methyl 4-(2-chloro-4-fluorophenyl)-6-(((S)-2-(4-(4-(hydroxymethyl)phenoxy)phenyl)-3-oxohexahydroimidazo[1,5-a]pyrazin-7(1H)-yl)methyl)-2-(thiazol-2-yl)-1,4-dihydropyrimidine-5-carboxylate] | 12.6 | > 150000 |
